Several values for one entry are separate records, joined by “and”; a condition that tells them apart may be missing. Equal values may be shown once.
Test system: collagen-induced arthritis
Test: Collagen-induced arthritis (CIA) model: clinical scores and paw volume; for Animal paw volume percent change (%): reference of the scale not given here; for Average animal paw volume percent change (%): reference of the scale not given here
Type: in vivo, Lewis rats
Conditions: for Animal paw volume percent change (%) / Animal paw volume / clinical score left forelimb / clinical score right forelimb / clinical score right hind limb / clinical score, score (all limbs) / clinical score left hind limb: individual animals; for Average detailed clinical score, left forelimb / Average detailed clinical score, left hind limb / Average detailed clinical score, right forelimb / Average detailed clinical score, right hind limb / Average detailed clinical score, score / Average overall clinical score / Overall Clinical Score / Animal paw volume: Day 21; for Overall Clinical Score: individual animals 1-8
[1] = Day 21, R paw, group 7 CIA + Compound A 10 mg/kg
[2] = group 5 CIA + Compound A 1 mg/kg, 2nd section of table, 1st day (between Day 12 and Day 18)
[3] = group 5 CIA + Compound A 1 mg/kg, 2nd section of table, 1st day (between Day 12 and Day 18), 1 mg/kg
[4] = group 5 CIA + Compound A 1 mg/kg, 2nd section of table, 2nd day (between Day 12 and Day 18)
[5] = group 5 CIA + Compound A 1 mg/kg, 2nd section of table, 2nd day (between Day 12 and Day 18), 1 mg/kg
[6] = group 5 CIA + Compound A 1 mg/kg, 2nd section of table, 3rd day (between Day 12 and Day 18)
[7] = group 5 CIA + Compound A 1 mg/kg, 2nd section of table, 3rd day (between Day 12 and Day 18), 1 mg/kg
[8] = group 5 CIA + Compound A 1 mg/kg, Day 18
[9] = group 5 CIA + Compound A 1 mg/kg, Day 18, 1 mg/kg
[10] = group 5 CIA + Compound A 1 mg/kg, Day 19
[11] = group 5 CIA + Compound A 1 mg/kg, Day 19, 1 mg/kg
[12] = group 5 CIA + Compound A 1 mg/kg, Day 20
[13] = group 5 CIA + Compound A 1 mg/kg, Day 20, 1 mg/kg
[14] = group 6 CIA + Compound A 3 mg/kg, 2nd section of table, 1st day (between Day 12 and Day 18)
[15] = group 6 CIA + Compound A 3 mg/kg, 2nd section of table, 2nd day (between Day 12 and Day 18)
[16] = group 6 CIA + Compound A 3 mg/kg, 2nd section of table, 2nd day (between Day 12 and Day 18), 3 mg/kg
[17] = group 6 CIA + Compound A 3 mg/kg, 2nd section of table, 3rd day (between Day 12 and Day 18)
[18] = group 6 CIA + Compound A 3 mg/kg, 2nd section of table, 3rd day (between Day 12 and Day 18), 3 mg/kg
[19] = group 6 CIA + Compound A 3 mg/kg, Day 18
[20] = group 6 CIA + Compound A 3 mg/kg, Day 18, 3 mg/kg
[21] = group 6 CIA + Compound A 3 mg/kg, Day 19
[22] = group 6 CIA + Compound A 3 mg/kg, Day 19, 3 mg/kg
[23] = group 6 CIA + Compound A 3 mg/kg, Day 20
[24] = group 6 CIA + Compound A 3 mg/kg, Day 20, 3 mg/kg
[25] = group 7 CIA + Compound A 10 mg/kg, 2nd section of table, 1st day (between Day 12 and Day 18), 10 mg/kg
[26] = group 7 CIA + Compound A 10 mg/kg, 2nd section of table, 2nd day (between Day 12 and Day 18)
[27] = group 7 CIA + Compound A 10 mg/kg, 2nd section of table, 2nd day (between Day 12 and Day 18), 10 mg/kg
[28] = group 7 CIA + Compound A 10 mg/kg, 2nd section of table, 3rd day (between Day 12 and Day 18)
[29] = group 7 CIA + Compound A 10 mg/kg, 2nd section of table, 3rd day (between Day 12 and Day 18), 10 mg/kg

`Cn1cc(-c2ccccc2)c(-c2cn(C)c(=O)c3[nH]c(-c4cnn(C(F)(F)F)c4)cc23)cc1=O` [Compound A, 6-methyl-4-(1-methyl-2-oxo-5-phenyl-1,2-dihydropyridin-4-yl)-2-(1-(trifluoromethyl)-1H-pyrazol-4-yl)-1,6-dihydro-7H-pyrrolo[2,3-c]pyridin-7-one] was tested, and the “Average animal paw volume percent change (%)” value (Day 21, R paw, group 6 CIA + Compound A 3 mg/kg) was 38.15%, the “Average animal paw volume” value [1] was 1.81 mL and the “Average animal paw volume percent change (%)” value [1] was 38.27%. For the same compound, the “Animal paw volume percent change (%)” value (Day 21, R paw, group 5 CIA + Compound A 1 mg/kg, 1 mg/kg) was 73.56% and 88.03% and 50.91% and 70.19% and 18.45% and 55.51% and 49.81%, the “Animal paw volume percent change (%)” value (Day 21, R paw, group 6 CIA + Compound A 3 mg/kg, 3 mg/kg) was 64.91% and 27.24% and 46.04% and 29.74% and 60.23% and the “Average detailed clinical score, left forelimb” value (CIA + Compound A 1 mg/kg) was 1.00. For the same compound, the “Average detailed clinical score, left hind limb” value (CIA + Compound A 1 mg/kg) was 4.00, the “Average detailed clinical score, right forelimb” value (CIA + Compound A 1 mg/kg) was 1.00 and the “Average detailed clinical score, right hind limb” value (CIA + Compound A 1 mg/kg) was 3.75. The “Average detailed clinical score, score” value (CIA + Compound A 1 mg/kg) was 9.75, the “Average overall clinical score” value (CIA + Compound A 1 mg/kg) was 5 and the “Overall Clinical Score” value (CIA + Compound A 1 mg/kg, 1 mg/kg) was 0 and 6 (5×) and 8 and 2. The “Average detailed clinical score, left forelimb” value (CIA + Compound A 3 mg/kg) was 0.00, the “Average detailed clinical score, left hind limb” value (CIA + Compound A 3 mg/kg) was 2.50 and the “Average detailed clinical score, right forelimb” value (CIA + Compound A 3 mg/kg) was 1.25. The “Average detailed clinical score, right hind limb” value (CIA + Compound A 3 mg/kg) was 2.75, the “Average detailed clinical score, score” value (CIA + Compound A 3 mg/kg) was 6.50 and the “Average overall clinical score” value (CIA + Compound A 3 mg/kg) was 4. The “Overall Clinical Score” value (CIA + Compound A 3 mg/kg, 3 mg/kg) was 5 (2×) and 3 (2×), the “Average detailed clinical score, left forelimb” value (CIA + Compound A 10 mg/kg) was 0.00 and the “Average detailed clinical score, left hind limb” value (CIA + Compound A 10 mg/kg) was 1.88. The “Average detailed clinical score, right forelimb” value (CIA + Compound A 10 mg/kg) was 0.13, the “Average detailed clinical score, right hind limb” value (CIA + Compound A 10 mg/kg) was 1.63 and the “Average detailed clinical score, score” value (CIA + Compound A 10 mg/kg) was 3.63. The “Average overall clinical score” value (CIA + Compound A 10 mg/kg) was 4, the Animal paw volume (L paw, Group 5 (CIA + Compound A 1 mg/kg), 1 mg/kg) was 2.05 mL and 2.45 mL and 2.08 mL (2×) and 2.27 mL and 1.64 mL and 2.15 mL and the Animal paw volume (L paw, Group 6 (CIA + Compound A 3 mg/kg), 3 mg/kg) was 1.92 mL and 2.19 mL and 1.64 mL and 1.52 mL and 1.80 mL. The Animal paw volume (R paw, Group 5 (CIA + Compound A 1 mg/kg), 1 mg/kg) was 2.27 mL and 2.44 mL and 2.08 mL and 2.26 mL and 1.61 mL and 2.05 mL and 1.99 mL, the Animal paw volume (R paw, Group 6 (CIA + Compound A 3 mg/kg), 3 mg/kg) was 2.19 mL and 1.64 mL and 1.94 mL and 1.75 mL and 2.08 mL and the “clinical score left forelimb” value [2] was 0. The “clinical score right forelimb” value [2] was 0, the “clinical score right hind limb” value [3] was 0 (6×) and 1 (2×) and the “clinical score, score (all limbs)” value [3] was 0 (6×) and 2 and 1. The “clinical score left forelimb” value [4] was 0, the “clinical score right forelimb” value [4] was 0 and the “clinical score left hind limb” value [5] was 0 (5×) and 2 and 1 (2×). The “clinical score right hind limb” value [5] was 0 (5×) and 1 (3×), the “clinical score, score (all limbs)” value [5] was 0 (3×) and 2 (2×) and 1 (3×) and the “clinical score left forelimb” value [6] was 0. The “clinical score right forelimb” value [6] was 0, the “clinical score left hind limb” value [7] was 0 (3×) and 2 (3×) and 1 (2×) and the “clinical score right hind limb” value [7] was 0 (3×) and 2 (2×) and 1 (3×). For the same compound, the “clinical score, score (all limbs)” value [7] was 0 (3×) and 4 and 3 (3×) and 2, the “clinical score left forelimb” value [8] was 0 and the “clinical score right forelimb” value [8] was 0. The “clinical score left hind limb” value [9] was 0 and 2 (3×) and 4 and 3 (2×) and 1, the “clinical score right hind limb” value [9] was 0 and 3 (4×) and 2 (2×) and 1 and the “clinical score, score (all limbs)” value [9] was 0 and 5 (3×) and 7 and 6 and 2 and 4. The “clinical score left forelimb” value [10] was 0, the “clinical score right forelimb” value [10] was 0 and the “clinical score left hind limb” value [11] was 0 and 3 (5×) and 4 and 1. The “clinical score right hind limb” value [11] was 0 and 3 (5×) and 4 and 2, the “clinical score, score (all limbs)” value [11] was 0 and 6 (5×) and 8 and 3 and the “clinical score left forelimb” value [12] was 0. The “clinical score right forelimb” value [12] was 0, the “clinical score left hind limb” value [13] was 0 and 3 (5×) and 4 and 1 and the “clinical score right hind limb” value [13] was 0 and 3 (5×) and 4 and 1. The “clinical score, score (all limbs)” value [13] was 0 and 6 (5×) and 8 and 2, the “clinical score left forelimb” value [14] was 0 and the “clinical score right forelimb” value [14] was 0. The “clinical score left forelimb” value [15] was 0, the “clinical score right forelimb” value [15] was 0 and the “clinical score left hind limb” value [16] was 0 (6×) and 1 (2×). The “clinical score, score (all limbs)” value [16] was 0 (6×) and 1 and 3, the “clinical score left forelimb” value [17] was 0 and the “clinical score right forelimb” value [17] was 0. The “clinical score left hind limb” value [18] was 0 (4×) and 1 (4×), the “clinical score right hind limb” value [18] was 0 (5×) and 2 and 1 (2×) and the “clinical score, score (all limbs)” value [18] was 0 (4×) and 1 and 3 and 2 (2×). The “clinical score left forelimb” value [19] was 0, the “clinical score right forelimb” value [19] was 0 and the “clinical score left hind limb” value [20] was 2. For the same compound, the “clinical score right hind limb” value [20] was 2, the “clinical score, score (all limbs)” value [20] was 4 and the “clinical score left forelimb” value [21] was 0. For the same compound, the “clinical score right forelimb” value [21] was 0, the “clinical score left hind limb” value [22] was 2 and the “clinical score right hind limb” value [22] was 3 and 2. The “clinical score, score (all limbs)” value [22] was 5 and 4, the “clinical score left forelimb” value [23] was 0 and the “clinical score right forelimb” value [23] was 0. For the same compound, the “clinical score left hind limb” value [24] was 2 and 3, the “clinical score right hind limb” value [24] was 3 and the “clinical score, score (all limbs)” value [24] was 5. For the same compound, the “clinical score left forelimb” value (group 7 CIA + Compound A 10 mg/kg, 2nd section of table, 1st day (between Day 12 and Day 18)) was 0, the “clinical score left hind limb” value [25] was 0 (7×) and 1 and the “clinical score right hind limb” value [25] was 0 (6×) and 1 (2×). For the same compound, the “clinical score, score (all limbs)” value [25] was 0 (6×) and 1 and 3, the “clinical score left forelimb” value [26] was 0 and the “clinical score right forelimb” value [26] was 0. For the same compound, the “clinical score left hind limb” value [27] was 0 (6×) and 1 (2×), the “clinical score right hind limb” value [27] was 0 (6×) and 2 and 1 and the “clinical score, score (all limbs)” value [27] was 0 (5×) and 1 and 2 (2×). The “clinical score left forelimb” value [28] was 0, the “clinical score right forelimb” value [28] was 0 and the “clinical score left hind limb” value [29] was 1 (2×) and 0 (4×) and 2 (2×). The “clinical score right hind limb” value [29] was 1 (2×) and 0 (5×) and 2 and the “clinical score, score (all limbs)” value [29] was 2 and 0 (4×) and 1 and 4 and 3.
